Laboratory results taken from patent US7858786B2, “Pyrimidines and pyrazines useful as modulators of ion channels” (Vertex Pharmaceuticals Incoropated, priority 2005, dated 2010).

What follows are compounds tested against NaV1.8 (Homo sapiens, UniProt Q9Y5Y9) (assay: Activity against NaV 1.8 channel (NaV inhibition assay)).
Type: cell-based
Description: Compounds of the invention are useful as antagonists of voltage-gated sodium ion channels. Antagonist properties of test compounds were assessed as follows. Cells expressing the NaV of interest were placed into microtiter plates. After an incubation period, the cells were stained with fluorescent dyes sensitive to the transmembrane potential. The test compounds were added to the microtiter plate. The cells were stimulated with either a chemical or electrical means to evoke a NaV dependent membrane potential change from unblocked channels, which was detected and measured with trans-membrane potential-sensitive dyes. Antagonists were detected as a decreased membrane potential response to the stimulus. The optical membrane potential assay utilized voltage-sensitive FRET sensors described by Gonzalez and Tsien (See, Gonzalez, J. E. and R. Y. Tsien (1995) “Voltage sensing by fluorescence resonance energy transfer in single cells” Biophys J 69(4):1272-80, and Gonzalez, J. E. and R. Y. Tsien (1997) “Improved indicators of cell membrane potential that use fluorescence resonance energy transfer” Chem Biol 4(4):269-77) in combination with instrumentation for measuring fluorescence changes such as the Voltage/Ion Probe Reader (VIPRO®) (See, Gonzalez, J. E., K. Oades, et al. (1999) “Cell-based assays and instrumentation for screening ion-channel targets” Drug Discov Today 4(9):431-439).
24 hours before the assay on VIPR, CHO cells endogenously expressing a NaV1.2 type voltage-gated NaV are seeded in 96-well poly-lysine coated plates at 60,000 cells per well. Other subtypes are performed in an analogous mode in a cell line expressing the NaV of interest.
The following is an example of how NaV1.3 inhibition activity is measured using the optical membrane potential method #2. Other subtypes are performed in an analogous mode in a cell line expressing the NaV of interest.
HEK293 cells stably expressing NaV1.3 are plated into 96-well microtiter plates. After an appropriate incubation period, the cells are stained with the voltage sensitive dyes CC2-DMPE/DiSBAC2(3) as follows.
Patch clamp electrophysiology was used to assess the efficacy and selectivity of sodium channel blockers in dorsal root ganglion neurons. Rat neurons were isolated from the dorsal root ganglions and maintained in culture for 2 to 10 days in the presence of NGF (50 ng/ml) (culture media consisted of NeurobasalA supplemented with B27, glutamine and antibiotics). Small diameter neurons (nociceptors, 8-12 μm in diameter) have been visually identified and probed with fine tip glass electrodes connected to an amplifier (Axon Instruments). The “voltage clamp” mode has been used to assess the compound's IC50 holding the cells at −60 mV. In addition, the “current clamp” mode has been employed to test the efficacy of the compounds in blocking action potential generation in response to current injections. The results of these experiments have contributed to the definition of the efficacy profile of the compounds.
TTX-resistant sodium currents were recorded from DRG somata using the whole-cell variation of the patch clamp technique. Recordings were made at room temperature (˜22° C.) with thick walled borosilicate glass electrodes (WPI; resistance 3-4 MΩ) using an Axopatch 200B amplifier (Axon Instruments). After establishing the whole-cell configuration, approximately 15 minutes were allowed for the pipette solution to equilibrate within the cell before beginning recording. Currents were lowpass filtered between 2-5 kHz and digitally sampled at 10 kHz. Series resistance was compensated 60-70% and was monitored continuously throughout the experiment. The liquid junction potential (−7 mV) between the intracellular pipette solution and the external recording solution was not accounted for in the data analysis. Test solutions were applied to the cells with a gravity driven fast perfusion system (SF-77; Warner Instruments). […]
With `CC(C)COC(=O)NC1CCN(c2nccc(-c3ccccc3O)n2)CC1` [Compound 1, [1-[4-(2-hydroxyphenyl)pyrimidin-2-yl]-4-piperidyl]aminoformic acid isobutyl ester] the IC50 was greater than 15 µM.
`O=C(NC1CCN(c2ccnc(-c3ccccc3F)n2)CC1)[C@H]1CCCO1` [Compound 2, N-[1-[2-(2-fluorophenyl)pyrimidin-4-yl]-4-piperidyl]tetrahydrofuran-2-carboxamide] gave an IC50 greater than 15 µM.
`CC(C)(C)OC(=O)NC1CCN(c2cncc(-c3ccccc3F)n2)CC1` [Compound 3, [1-[6-(2-fluorophenyl)pyrazin-2-yl]-4-piperidyl]aminoformic acid tert-butyl ester] gave an IC50 of less than 10 µM.
Compound `CC(C)COC(=O)N1CCN(c2cc(-c3ccccc3C(F)F)ncn2)CC1` [Compound 4, 4-[6-[2-(difluoromethyl)phenyl]pyrimidin-4-yl]piperazine-1-carboxylic acid isobutyl ester] has an IC50 greater than 15 µM.
Compound `CC(C)C[C@@H](O)C(=O)N1CCN(c2nccc(-c3ccccc3C(F)F)n2)CC1` [Compound 6, 1-[4-[4-[2-(difluoromethyl)phenyl]pyrimidin-2-yl]piperazin-1-yl]-2-hydroxy-4-methyl-pentan-1-one] has an IC50 of 10 to 15 µM.
`CC(C)C(=O)N[C@@H]1CCN(c2cncc(-c3ccccc3F)n2)C1` [Compound 7, N-[1-[6-(2-fluorophenyl)pyrazin-2-yl]pyrrolidin-3-yl]-2-methyl-propanamide] showed an IC50 greater than 15 µM.
With `CC(C)(C)OC(=O)N[C@@H]1CCN(c2cncc(-c3ccccc3F)n2)C1` [Compound 8, [1-[6-(2-fluorophenyl)pyrazin-2-yl]pyrrolidin-3-yl]aminoformic acid tert-butyl ester] the IC50 was 10 to 15 µM.
`COCCOC(=O)NC1CCN(c2cncc(-c3ccccc3F)n2)CC1` [Compound 9, [1-[6-(2-fluorophenyl)pyrazin-2-yl]-4-piperidyl]aminoformic acid 2-methoxyethyl ester] gave an IC50 of less than 10 µM.
In the case of `CC(C)COC(=O)N1CCN(c2ccnc(-c3ccccc3F)n2)CC1` [Compound 10, 4-[2-(2-fluorophenyl)pyrimidin-4-yl]piperazine-1-carboxylic acid isobutyl ester], the IC50 is reported as greater than 15 µM.
In the case of `COCCOC(=O)N[C@H]1CCN(c2cncc(-c3ccccc3C(F)F)n2)C1` [Compound 11, [1-[6-[2-(difluoromethyl)phenyl]pyrazin-2-yl]pyrrolidin-3-yl]aminoformic acid 2-methoxyethyl ester], the IC50 is reported as greater than 15 µM.
`CC(C)C[C@@H](O)C(=O)N1CCN(c2ccnc(-c3ccccc3O)n2)CC1` [Compound 12, 2-hydroxy-1-[4-[2-(2-hydroxyphenyl)pyrimidin-4-yl]piperazin-1-yl]-4-methyl-pentan-1-one] was tested, and the IC50 was 10 to 15 µM.
Compound `CC(C)COC(=O)NC1CCN(c2ccnc(-c3ccccc3C(F)F)n2)CC1` [Compound 13, [1-[2-[2-(difluoromethyl)phenyl]pyrimidin-4-yl]-4-piperidyl]aminoformic acid isobutyl ester] has an IC50 of less than 10 µM.
With `CC(C)C(=O)N[C@@H]1CCN(c2cncc(-c3ccccc3O)n2)C1` [Compound 14, N-[1-[6-(2-hydroxyphenyl)pyrazin-2-yl]pyrrolidin-3-yl]-2-methyl-propanamide] the IC50 was greater than 15 µM.
`CC(C)COC(=O)N1CCN(c2cncc(-c3ccccc3C(F)F)n2)CC1` [Compound 15, 4-[6-[2-(difluoromethyl)phenyl]pyrazin-2-yl]piperazine-1-carboxylic acid isobutyl ester] showed an IC50 of 10 to 15 µM.
With `COCCOC(=O)N[C@@H]1CCN(c2cncc(-c3ccccc3O)n2)C1` [Compound 16, [1-[6-(2-hydroxyphenyl)pyrazin-2-yl]pyrrolidin-3-yl]aminoformic acid 2-methoxyethyl ester] the IC50 was greater than 15 µM.
`CC(C)COC(=O)NC1CCN(c2cncc(-c3ccccc3O)n2)CC1` [Compound 18, [1-[6-(2-hydroxyphenyl)pyrazin-2-yl]-4-piperidyl]aminoformic acid isobutyl ester] was tested, and the IC50 was less than 10 µM.
`COCCOC(=O)NC1CCN(c2cncc(-c3ccccc3C(F)F)n2)CC1` [Compound 19, [1-[6-[2-(difluoromethyl)phenyl]pyrazin-2-yl]-4-piperidyl]aminoformic acid 2-methoxyethyl ester] gave an IC50 of less than 10 µM.
`CC(C)COC(=O)N1CCN(c2cc(-c3ccccc3O)ncn2)CC1` [Compound 20, 4-[6-(2-hydroxyphenyl)pyrimidin-4-yl]piperazine-1-carboxylic acid isobutyl ester] was tested, and the IC50 was 10 to 15 µM.
For `CC(C)C[C@@H](O)C(=O)N1CCN(c2ccnc(-c3ccccc3C(F)F)n2)CC1` [Compound 21, 1-[4-[2-[2-(difluoromethyl)phenyl]pyrimidin-4-yl]piperazin-1-yl]-2-hydroxy-4-methyl-pentan-1-one], the IC50 was greater than 15 µM.
For `CC(C)OC(=O)N[C@@H]1CCN(c2cncc(-c3ccccc3F)n2)C1` [Compound 22, [1-[6-(2-fluorophenyl)pyrazin-2-yl]pyrrolidin-3-yl]aminoformic acid isopropyl ester], the IC50 was greater than 15 µM.
With `CC(C)COC(=O)N1CCN(c2cc(-c3ccccc3F)ncn2)CC1` [Compound 23, 4-[6-(2-fluorophenyl)pyrimidin-4-yl]piperazine-1-carboxylic acid isobutyl ester] the IC50 was greater than 15 µM.
In the case of `CC(C)COC(=O)N1CCN(c2nccc(-c3ccccc3C(F)F)n2)CC1` [Compound 24, 4-[4-[2-(difluoromethyl)phenyl]pyrimidin-2-yl]piperazine-1-carboxylic acid isobutyl ester], the IC50 is reported as 10 to 15 µM.
`CC(C)COC(=O)N1CCN(c2nccc(-c3ccccc3O)n2)CC1` [Compound 25, 4-[4-(2-hydroxyphenyl)pyrimidin-2-yl]piperazine-1-carboxylic acid isobutyl ester] was tested, and the IC50 was less than 10 µM.
Compound `CC(C)C[C@@H](O)C(=O)N1CCN(c2cc(-c3ccccc3O)ncn2)CC1` [Compound 26, 2-hydroxy-1-[4-[6-(2-hydroxyphenyl)pyrimidin-4-yl]piperazin-1-yl]-4-methyl-pentan-1-one] has an IC50 greater than 15 µM.
`COCCOC(=O)N[C@@H]1CCN(c2cncc(-c3ccccc3F)n2)C1` [Compound 27, [1-[6-(2-fluorophenyl)pyrazin-2-yl]pyrrolidin-3-yl]aminoformic acid 2-methoxyethyl ester] showed an IC50 greater than 15 µM.
`CC(C)C(=O)N[C@@H]1CCN(c2cncc(-c3ccccc3C(F)F)n2)C1` [Compound 28, N-[1-[6-[2-(difluoromethyl)phenyl]pyrazin-2-yl]pyrrolidin-3-yl]-2-methyl-propanamide] showed an IC50 greater than 15 µM.
`O=C(NC1CCN(c2ccnc(-c3ccccc3O)n2)CC1)[C@H]1CCCO1` [Compound 29, N-[1-[2-(2-hydroxyphenyl)pyrimidin-4-yl]-4-piperidyl]tetrahydrofuran-2-carboxamide] was tested, and the IC50 was greater than 15 µM.
Work on `CC(C)COC(=O)NC1CCN(c2nccc(-c3ccccc3C(F)F)n2)CC1` [Compound 31, [1-[4-[2-(difluoromethyl)phenyl]pyrimidin-2-yl]-4-piperidyl]aminoformic acid isobutyl ester] yielded an IC50 of less than 10 µM.
`CC(C)COC(=O)N1CCN(c2ccnc(-c3ccccc3C(F)F)n2)CC1` [Compound 32, 4-[2-[2-(difluoromethyl)phenyl]pyrimidin-4-yl]piperazine-1-carboxylic acid isobutyl ester] was tested, and the IC50 was greater than 15 µM.
